From patent publication US20250223331A1, “GLP-1/GIP DUAL-TARGETED POLYPEPTIDE AND FUSION PROTEIN AND APPLICATIONS THEREOF” (SUNSHINE LAKE PHARMA CO., LTD., priority 2021, published 2025)
Marks after values point to notes of the source that are not given here. Where no end group is shown, it is not given here.

Columns and labels:
db/db mice = assay: in vivo efficacy in db/db mouse model, blood glucose; conditions: 10 nmol/kg s.c.
Description: Methods: 7-8 week old db/db mice were randomly divided into 3 groups (Model group, Semaglutide group, HEC-G20 group) according to blood glucose and body weight, with 9 mice in each group. For the groups of Semaglutide (Semaglutide was purchased from Novo Nordisk, lot number was JP52092) and HEC-G20, the corresponding drug was administered subcutaneously into the mice at a dose of 10 nmol/kg for each group, and for the Model group, the corresponding vehicle was injected subcutaneously. The Semaglutide group was dosed once a day, and the HEC-G20 group was dosed twice a week for a total of 4 weeks, and animal blood glucose was tested before each dose.

DIO mice = assay: in vivo efficacy in DIO model: body weight, food intake, liver, blood biochemistry
Text: Experimental methods: C57/BL6 mice were randomly divided into normal group NFD and model group HFD at the fifth week of age, and the normal group was fed with ordinary maintenance diet, while the model group was fed with high-fat diet D12492. Changes in body weight and food intake in mice were monitored every 3 weeks. After 16 weeks of feeding, the body weight of mice in the model group and the normal group were (47.9±3.4) g and (29.6±1.5) g, respectively, and the difference between the two groups was statistically significant. The normal group was divided into the control group, and the model group mice that were successfully modeled were divided into Vehicle group, Semaglutide group, HEC-G115 group and HEC-G124 group, with 10 mice in each group. For the groups of Semaglutide, HEC-G115 and HEC-G124, the corresponding drug was injected subcutaneously in each group, and PBS was injected subcutaneously in the Vehicle group. […] Weight and food intake were measured before each dose. After 3 weeks of administration, an intraperitoneal glucose tolerance test was performed. After 72 h of the last administration, samples were collected, liver weight was recorded, and liver pathological status and blood biochemical indexes were detected in each group.

GIPR = molecular target: T1, GIPR (Homo sapiens, UniProt P48546); assay: cAMP assay, in vitro activity of polypeptides, HEK293-GIPR cells; assay type: cell-based; conditions: read-out: Ec50(nM) of the peptide GIPR
T1 construct: expressed in transfected cells; host or cells: HEK293 (pcDNA3.1, G418-selected single clone)
T1 sequence (P48546 22-466): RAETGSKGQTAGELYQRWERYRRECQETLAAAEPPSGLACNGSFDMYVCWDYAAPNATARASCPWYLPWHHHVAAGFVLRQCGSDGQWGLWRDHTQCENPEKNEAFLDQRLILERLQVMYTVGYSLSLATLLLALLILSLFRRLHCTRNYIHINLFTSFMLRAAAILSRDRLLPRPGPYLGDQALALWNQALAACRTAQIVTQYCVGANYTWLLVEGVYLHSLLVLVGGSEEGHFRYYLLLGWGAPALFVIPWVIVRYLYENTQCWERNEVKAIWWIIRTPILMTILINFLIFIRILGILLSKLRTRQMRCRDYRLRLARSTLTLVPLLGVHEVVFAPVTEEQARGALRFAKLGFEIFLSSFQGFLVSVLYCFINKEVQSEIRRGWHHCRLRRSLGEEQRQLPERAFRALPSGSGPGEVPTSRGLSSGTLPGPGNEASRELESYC
Description: (§1) The digested product was electrophoresed on 1% agarose gel and the target band was cut out with a clean blade, then a gel recovery kit was used to recover the target fragment. The specific experimental operations are carried out according to the kit instructions; • 3) The target fragment enzymatic digestion recovery product and vector plasmid pcDNA3.1 fragment were connected through T4 ligase and transformed into DH5a competent cells, then single colonies were isolated by spreading on plates, and the transformants were selected and expanded for enzyme digestion verification and sequencing verification. • 4) 200 mL of the bacterial liquid obtained in inoculation step 3) and verified by sequencing to contain the fusion protein of the target product was used for plasmid extraction. The kit used was PureLink HiPure Plasmid Maxiprep Kit, and according to the instructions. […] Finally, the ethanol precipitation method was used to recover the plasmid. • 5) The host cells were HEK293, one day before transfection, the cells were spread into a 6-well plate at a density of 2×10^6 cells/well, and the addition volume was 1 mL/well.
(§2) Using a cAMP detection kit (Cisbio, 62AM6PEC) to detect cAMP produced by the recipient cells according to the steps described in the operating instructions. […] If the mixture was not completely melted within 1.5 min, the cells were added dropwise to a 15 mL centrifuge tube containing 8 mL warm culture medium on a clean bench, then centrifuged at 900 rpm for 5 min, the supernatant was discarded, and the cells were re-suspended with 1 mL complete culture medium (15 times by pipetting).

GLP-1R = GLP-1R (Homo sapiens, UniProt P43220); assay: cAMP assay, in vitro activity of polypeptides, HEK293-GLP-1R cells; assay type: cell-based; set-up: expressed in transfected cells; host or cells: HEK293 (pcDNA3.1, G418-selected single clone); conditions: for EC50: HEK293-GLP-1R, cAMP, read-out: Ec50(nM) of the peptide GLP-1R; for GLP-1R agonistic activity: peptides
GLP-1R, sequence (P43220 24-463, species assumed): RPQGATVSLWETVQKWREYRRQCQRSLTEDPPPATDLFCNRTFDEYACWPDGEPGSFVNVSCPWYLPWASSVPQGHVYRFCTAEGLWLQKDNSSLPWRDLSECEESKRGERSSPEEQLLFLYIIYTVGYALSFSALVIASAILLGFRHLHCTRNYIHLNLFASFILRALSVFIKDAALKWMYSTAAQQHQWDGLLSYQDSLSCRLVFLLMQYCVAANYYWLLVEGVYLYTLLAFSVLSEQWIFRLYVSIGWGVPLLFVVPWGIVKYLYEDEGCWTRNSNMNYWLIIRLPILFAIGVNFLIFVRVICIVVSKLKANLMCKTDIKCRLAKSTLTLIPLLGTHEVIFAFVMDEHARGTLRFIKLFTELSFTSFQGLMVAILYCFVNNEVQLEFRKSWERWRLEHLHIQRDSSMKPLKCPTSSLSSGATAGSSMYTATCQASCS
Description: as §1, §2

[1] = long-term administration 10 nmol/kg s.c., 72 h after last administration
[2] = long-term administration 10 nmol/kg s.c., blood biochemistry

Substance: Semaglutide [reference compound]
- Random blood glucose 1.5 h (db/db mice; 1.5 h): 15.9 ± 3.4 mM
- Random blood glucose 5 h (db/db mice; 5 h): 15.4 ± 4.0 mM
- Random blood glucose 7 h (db/db mice; 7 h): 16.3 ± 4.2 mM
- Random blood glucose D 0 (db/db mice; Semaglutide once a day, HEC-G20 twice a week, D 0): 25.7 ± 3.7 mM
- Random blood glucose D 3 (db/db mice; Semaglutide once a day, HEC-G20 twice a week, D 3): 11.6 ± 4.1 mM
- Random blood glucose D 7 (db/db mice; Semaglutide once a day, HEC-G20 twice a week, D 7): 14.9 ± 4.2 mM
- Random blood glucose D 10 (db/db mice; Semaglutide once a day, HEC-G20 twice a week, D 10): 17.1 ± 4.2 mM
- Random blood glucose D 14 (db/db mice; Semaglutide once a day, HEC-G20 twice a week, D 14): 18.1 ± 3.1 mM
- Random blood glucose D 17 (db/db mice; Semaglutide once a day, HEC-G20 twice a week, D 17): 18.5 ± 3.0 mM
- Random blood glucose D 21 (db/db mice; Semaglutide once a day, HEC-G20 twice a week, D 21): 18.0 ± 3.3 mM
- Random blood glucose D 24 (db/db mice; Semaglutide once a day, HEC-G20 twice a week, D 24): 19.9 ± 2.2 ^a mM
- Cumulative food intake D 7-10 (DIO mice; 10 nmol/kg s.c. repeated, D 7-10): 15.7 g/pcs
- Weight growth rate D 10 (DIO mice; 10 nmol/kg s.c. repeated, D 10): −17.6 ± 5.1%
- Cumulative food intake D 11-13 (DIO mice; 10 nmol/kg s.c. repeated, D 11-13): 20.7 g/pcs
- Weight growth rate D 13 (DIO mice; 10 nmol/kg s.c. repeated, D 13): −21.3 ± 5.8%
- Cumulative food intake D 14-16 (DIO mice; 10 nmol/kg s.c. repeated, D 14-16): 27.9 g/pcs
- Weight growth rate D 16 (DIO mice; 10 nmol/kg s.c. repeated, D 16): −22.3 ± 5.3%
- Cumulative food intake D 17-19 (DIO mice; 10 nmol/kg s.c. repeated, D 17-19): 35.7 g/pcs
- Weight growth rate D 19 (DIO mice; 10 nmol/kg s.c. repeated, D 19): −21.6 ± 5.6%
- Cumulative food intake D 20-22 (DIO mice; 10 nmol/kg s.c. repeated, D 20-22): 41.8 g/pcs
- Weight growth rate D 22 (DIO mice; 10 nmol/kg s.c. repeated, D 22): −24.2 ± 6.2%
- Cumulative food intake D 23-27 (DIO mice; 10 nmol/kg s.c. repeated, D 23-27): 55.0 ^a g/pcs
- Weight growth rate D 25 (DIO mice; 10 nmol/kg s.c. repeated, D 25): −23.2 ± 6.0^a %
- Cumulative food intake D 0 (DIO mice; 10 nmol/kg s.c., D 0): 0.7 g/pcs
- Weight growth rate D 0 (DIO mice; 10 nmol/kg s.c., D 0): 0.0 ± 0.0%
- Cumulative food intake D 1 (DIO mice; 10 nmol/kg s.c., D 1): 1.8 g/pcs
- Weight growth rate D 1 (DIO mice; 10 nmol/kg s.c., D 1): −5.3 ± 1.0%
- Cumulative food intake D 2 (DIO mice; 10 nmol/kg s.c., D 2): 3.2 g/pcs
- Weight growth rate D 2 (DIO mice; 10 nmol/kg s.c., D 2): −7.2 ± 1.2%
- Cumulative food intake D 3 (DIO mice; 10 nmol/kg s.c., D 3): 5.3 g/pcs
- Weight growth rate D 3 (DIO mice; 10 nmol/kg s.c., D 3): −8.2 ± 1.6%
- Cumulative food intake D 4 (DIO mice; 10 nmol/kg s.c., D 4): 8.2 g/pcs
- Weight growth rate D 4 (DIO mice; 10 nmol/kg s.c., D 4): −7.4 ± 2.8%
- Cumulative food intake D 5 (DIO mice; 10 nmol/kg s.c., D 5): 10.2 g/pcs
- Weight growth rate D 5 (DIO mice; 10 nmol/kg s.c., D 5): −6.7 ± 3.7%
- Cumulative food intake D 6 (DIO mice; 10 nmol/kg s.c., D 6): 12.5 g/pcs
- Weight growth rate D 6 (DIO mice; 10 nmol/kg s.c., D 6): −8.2 ± 3.8%
- Weight growth rate D 7 (DIO mice; 10 nmol/kg s.c., D 7): −8.1 ± 4.7%
- Liver (DIO mice; liver weight, long-term administration 10 nmol/kg s.c., 72 h after last administration): 1.0 ± 0.2 ^a g
- Body weight (DIO mice; [1]): 33.0 ± 2.7^a g
- Liver index (DIO mice; [1]): 3.0 ± 0.0 ^a %
- ALT (DIO mice; [2]): 19.3 ± 4.3 ^a U/L
- AST (DIO mice; [2]): 109.4 ± 9.2 ^a U/L
- CHOL (DIO mice; [2]): 2.7 ± 0.4 ^a mmol/L
- TRIGL (DIO mice; [2]): 0.7 ± 0.1 mmol/L

Substance: YGEGTFTSDYSILLDKIAQREFIEWLLAGGPSSGAPPPS [CG126, YGEGTFTSDYSILLDKIAQREFIEWLLAG GPSSGAPPPS]
- EC50 (GIPR): 0.027 nM
- EC50 (GLP-1R): 0.918 nM

Substance: YSEGTFTSDYSILLDKIAQQDFVEWLLAGGPSSGAPPPS [CG133, YSEGTFTSDYSILLDKIAQQDFVEWLLAG GPSSGAPPPS]
- EC50 (GIPR): 0.017 nM
- EC50 (GLP-1R): 8.18 nM
- GLP-1R agonistic activity (GLP-1R): weaker GLP-1R agonistic activities

Substance: YSEGTFTSDYSILLDKIAQQEFIEWLIAGGPSSGAPPPS [CG135, YSEGTFTSDYSILLDKIAQQEFIEWLIAG GPSSGAPPPS]
- EC50 (GIPR): 0.015 nM
- EC50 (GLP-1R): 0.558 nM

Substance: YSEGTFTSDYSILLDKIAQQEFIEWLLAGGPSSGAPPPS [CG134, YSEGTFTSDYSILLDKIAQQEFIEWLLAG GPSSGAPPPS]
- EC50 (GIPR): 0.012 nM
- EC50 (GLP-1R): 2.15 nM
- GLP-1R agonistic activity (GLP-1R): weaker GLP-1R agonistic activities

Substance: YSEGTFTSDYSILLDKIAQRAFIEWLLAGGPSSGAPPPS [CG121, YSEGTFTSDYSILLDKIAQRAFIEWLLAG GPSSGAPPPS]
- EC50 (GIPR): 0.018 nM
- EC50 (GLP-1R): 0.322 nM

Substance: YSEGTFTSDYSILLDKIAQRAFVQWLIAGGPSSGAPPPS [CG125, YSEGTFTSDYSILLDKIAQRAFVQWLIAG GPSSGAPPPS]
- EC50 (GIPR): 0.073 nM
- EC50 (GLP-1R): 0.205 nM

Substance: YSEGTFTSDYSILLDKIAQREFIEWLIAGGPSSGAPPPS [CG122, YSEGTFTSDYSILLDKIAQREFIEWLIAG GPSSGAPPPS]
- EC50 (GIPR): 0.016 nM
- EC50 (GLP-1R): 0.191 nM

Substance: YSEGTFTSDYSILLDKIAQREFIEWLLAGGPSSGAPPPS [CG115, YSEGTFTSDYSILLDKIAQREFIEWLLAG GPSSGAPPPS]
- EC50 (GIPR): 0.005 nM
- EC50 (GLP-1R): 0.291 nM

Substance: YSEGTFTSDYSILLDKIAQREFVQWLIAGGPSSGAPPPS [CG124, YSEGTFTSDYSILLDKIAQREFVQWLIAG GPSSGAPPPS]
- EC50 (GIPR): 0.041 nM
- EC50 (GLP-1R): 0.232 nM

Substance: YSEGTFTSDYSILLDKIAQREFVQWLLAGGPSSGAPPPS [CG123, YSEGTFTSDYSILLDKIAQREFVQWLLAG GPSSGAPPPS]
- EC50 (GIPR): 0.044 nM
- EC50 (GLP-1R): 0.879 nM

Substance: YSEGTFTSDYSILLDKKAQQDFIEWLIAGGPSSGAPPPS [CG137, YSEGTFTSDYSILLDKKAQQDFIEWLIAG GPSSGAPPPS]
- EC50 (GIPR): 0.061 nM
- EC50 (GLP-1R): 0.25 nM

Substance: YSEGTFTSDYSILLDKKAQQDFIEWLLAGGPSSGAPPPS [CG136, YSEGTFTSDYSILLDKKAQQDFIEWLLAG GPSSGAPPPS]
- EC50 (GIPR): 0.05 nM
- EC50 (GLP-1R): 1.11 nM

Substance: YSEGTFTSDYSILLDKKAQRDFIEWLLAGGPSSGAPPPS [CG127, YSEGTFTSDYSILLDKKAQRDFIEWLLAG GPSSGAPPPS]
- EC50 (GIPR): 0.084 nM
- EC50 (GLP-1R): 0.364 nM
